Results on 22 compounds are retold here after patent US11820766B2, “Monoacylglycerol lipase modulators” (Janssen Pharmaceutica NV, priority 2018, dated 2023).

The first assay concerns the target T1, human MGL from HeLa cells (Homo sapiens, UniProt Q99685).
T1 construct: combining endogenously expressed MGL from HeLa cells with test compounds; endogenous in cells; host or cells: HeLa cells / cell homogenates
T1 sequence (Q99685 1-303): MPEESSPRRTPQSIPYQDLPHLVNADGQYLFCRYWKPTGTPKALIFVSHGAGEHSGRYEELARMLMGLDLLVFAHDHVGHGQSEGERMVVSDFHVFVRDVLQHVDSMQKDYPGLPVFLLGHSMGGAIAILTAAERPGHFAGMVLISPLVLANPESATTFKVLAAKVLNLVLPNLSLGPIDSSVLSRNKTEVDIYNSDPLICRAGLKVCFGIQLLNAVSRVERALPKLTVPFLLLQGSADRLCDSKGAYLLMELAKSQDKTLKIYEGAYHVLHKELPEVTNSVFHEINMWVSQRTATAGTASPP
The assay is described as follows: In vitro MGL activity assay: [glycerol-1,3-3H]-oleyl glycerol cleavage by MGL from HeLa cells. It counts as biochemical. Particulars: 300 nM [Glycerol-1,3-3H]-oleyl glycerol, one hour. From the text:
MGL is the predominant hydrolase in HeLa cells/cell homogenates.
As for `C[C@H]1c2nn(C)c(-c3cc(F)c(F)c(F)c3)c2CCN1C(=O)c1ccc2c(c1)CCCO2` [Example 580, Chroman-6-yl-[(7S)-2,7-dimethyl-3-(3,4,5-trifluorophenyl)-5,7-dihydro-4H-pyrazolo[3,4-c]pyridin-6-yl]methanone], the IC50 (as a rule, the concentration needed to halve the response being measured) amounted to 19.6 nM. On the same count and under the same terms, the value for `C[C@H]1c2nn(C)c(-c3cc(F)c(F)c(F)c3)c2CCN1C(=O)c1cnn(C)c1[C@H]1CC1F` (mixture of isomers) [Example 339, ((S)-2,7-Dimethyl-3-(3,4,5-trifluorophenyl)-2,4,5,7-tetrahydro-6H-pyrazolo[3,4-c]pyridin-6-yl)(cis-5-(2-fluorocyclopropyl)-1-methyl-1H-pyrazol-4-yl)methanone] was 3.01 nM; that for `C[C@H]1c2nn(C)c(-c3cc(F)c(F)c(F)c3)c2CCN1C(=O)c1ccc2oc(=O)[nH]c2c1` [Example 586, 5-[(7S)-2,7-Dimethyl-3-(3,4,5-trifluorophenyl)-5,7-dihydro-4H-pyrazolo[3,4-c]pyridine-6-carbonyl]-3H-1,3-benzoxazol-2-one] was 1000 nM; that for `COc1nccc(C(=O)N2CCc3c(nn(C)c3-c3cc(F)cc(OC(F)F)c3)[C@@H]2C)c1C` [Example 597, [(7S)-3-[3-(Difluoromethoxy)-5-fluoro-phenyl]-2,7-dimethyl-5,7-dihydro-4H-pyrazolo[3,4-c]pyridin-6-yl]-(2-methoxy-3-methyl-4-pyridyl)methanone] was 25 nM. `C[C@H]1c2nn(C)c(-c3cc(F)c(F)c(F)c3)c2CCN1C(=O)c1cccc2c1CNCC2` [Example 575, [(7S)-2,7-Dimethyl-3-(3,4,5-trifluorophenyl)-5,7-dihydro-4H-pyrazolo[3,4-c]pyridin-6-yl]-(1,2,3,4-tetrahydroisoquinolin-8-yl)methanone]: it took 72.7 nM to reach half-maximal inhibition (IC50).

The assay is the same for the next values; noted with them: 300 nM [Glycerol-1,3-3H]-oleyl glycerol, one hour incubation.
Consider `C[C@H]1c2nn(C)c(-c3cc(F)c(F)c(F)c3)c2CCN1C(=O)c1cnn(C2CC2)c1` [Example 331, (1-Cyclopropylpyrazol-4-yl)-[(7S)-2,7-dimethyl-3-(3,4,5-trifluorophenyl)-5,7-dihydro-4H-pyrazolo[3,4-c]pyridin-6-yl]methanone], for which the IC50 was 250 nM. The same measure, in the same setting: next, `Cn1nc2c(c1-c1ccccc1)CCN(C(=O)c1c(F)ccc3[nH]ccc13)C2` [Example 47, (5-Fluoro-1H-indol-4-yl)(2-methyl-3-phenyl-2,4,5,7-tetrahydro-6H-pyrazolo[3,4-c]pyridin-6-yl)methanone]: 70.2 nM; `COc1ccc(-c2c3c(nn2C)[C@H](C)N(C(=O)c2ccc4nccnc4c2)CC3)cc1Cl` [Example 188, (S)-(3-(3-Chloro-4-methoxyphenyl)-2,7-dimethyl-2,4,5,7-tetrahydro-6H-pyrazolo[3,4-c]pyridin-6-yl)(quinoxalin-6-yl)methanone]: 105 nM; `C[C@H]1c2nn(C)c(-c3cc(F)c(F)c(F)c3)c2CCN1C(=O)c1cn(C)c2cnccc12` [Example 221, (S)-(2,7-Dimethyl-3-(3,4,5-trifluorophenyl)-2,4,5,7-tetrahydro-6H-pyrazolo[3,4-c]pyridin-6-yl)(1-methyl-1H-pyrrolo[2,3-c]pyridin-3-yl)methanone]: 78.9 nM.

The compound `C[C@H]1c2nn(C)c(-c3cc(F)c(F)c(F)c3)c2CCN1C(=O)c1ccn2nccc2c1` [Example 228, (S)-(2,7-Dimethyl-3-(3,4,5-trifluorophenyl)-2,4,5,7-tetrahydro-6H-pyrazolo[3,4-c]pyridin-6-yl)(pyrazolo[1,5-a]pyridin-5-yl)methanone] returned an IC50 of 48.1 nM.

Consider `CCc1nc(C(=O)N2CCc3c(nn(C)c3-c3cc(F)c(F)c(F)c3)[C@@H]2C)nn1-c1ccccc1` [Example 202, (S)-(2,7-Dimethyl-3-(3,4,5-trifluorophenyl)-2,4,5,7-tetrahydro-6H-pyrazolo[3,4-c]pyridin-6-yl)(5-ethyl-1-phenyl-1H-1,2,4-triazol-3-yl)methanone], for which the IC50 was 7.39 nM. `COc1cnc(C(=O)N2CCc3c(nn(C)c3-c3cc(F)c(F)c(F)c3)[C@@H]2C)cn1` [Example 326, [(7S)-2,7-Dimethyl-3-(3,4,5-trifluorophenyl)-5,7-dihydro-4H-pyrazolo[3,4-c]pyridin-6-yl]-(5-methoxypyrazin-2-yl)methanone] gave a concentration for half-maximal inhibition (IC50) of 522 nM. The same measure, in the same setting: the value for `C[C@H]1c2nn(C)c(-c3cc(F)c(F)c(F)c3)c2CCN1C(=O)c1cnn2ccncc12` [Example 229, (S)-(2,7-Dimethyl-3-(3,4,5-trifluorophenyl)-2,4,5,7-tetrahydro-6H-pyrazolo[3,4-c]pyridin-6-yl)(pyrazolo[1,5-a]pyrazin-3-yl)methanone] was 40.7 nM. Compound `C[C@H]1c2nn(C)c(-c3cc(F)c(F)c(F)c3)c2CCN1C(=O)c1cccc2c1ccn2C` [Example 207, (S)-(2,7-dimethyl-3-(3,4,5-trifluorophenyl)-2,4,5,7-tetrahydro-6H-pyrazolo[3,4-c]pyridin-6-yl)(1-methyl-1H-indol-4-yl)methanone] gave a concentration for half-maximal inhibition (IC50) of 0.22 nM.

Consider `CC1c2nn(C)c(-c3cccc4ccn(C)c34)c2CCN1C(=O)c1ccc2ncccc2c1` (stereo not shown) [Example 253, (2,7-Dimethyl-3-(1-methyl-1H-indol-7-yl)-2,4,5,7-tetrahydro-6H-pyrazolo[3,4-c]pyridin-6-yl)(quinolin-6-yl)methanone], for which half-maximal inhibition (IC50) was put at 1610 nM.

Compound `Cn1nc2c(c1-c1ccccc1)CCN(C(=O)c1cccc3ncsc13)C2` [Example 59, Benzo[d]thiazol-7-yl(2-methyl-3-phenyl-2,4,5,7-tetrahydro-6H-pyrazolo[3,4-c]pyridin-6-yl)methanone] showed an IC50 of 403 nM. Regarding `C[C@H]1c2nn(C)c(-c3cc(F)c(F)c(F)c3)c2CCN1C(=O)c1cccc(-n2nccn2)c1` [Example 283, [(7S)-2,7-Dimethyl-3-(3,4,5-trifluorophenyl)-5,7-dihydro-4H-pyrazolo[3,4-c]pyridin-6-yl]-[3-(triazol-2-yl)phenyl]methanone], the IC50 stood at 19.1 nM. In turn, `C[C@H]1c2nn(C)c(-c3cc(F)c(F)c(F)c3)c2CCN1C(=O)c1ccnc2c1ccn2C` [Example 225, (S)-(2,7-Dimethyl-3-(3,4,5-trifluorophenyl)-2,4,5,7-tetrahydro-6H-pyrazolo[3,4-c]pyridin-6-yl)(1-methyl-1H-pyrrolo[2,3-b]pyridin-4-yl)methanone] had an IC50 of 0.64 nM. With `CC1c2nn(C)c(-c3ccccc3)c2CCN1C(=O)c1ccc2ncccc2c1` (racemic) [Example 110, (2,7-Dimethyl-3-phenyl-2,4,5,7-tetrahydro-6H-pyrazolo[3,4-c]pyridin-6-yl)(quinolin-6-yl)methanone], inhibition was half-maximal at 19.9 nM (IC50). Still for that read-out and setting: next, `COc1ccnc(C(=O)N2CCc3c(nn(C)c3-c3cc(F)c(F)c(F)c3)[C@@H]2C)c1Cl` [Example 317, (3-Chloro-4-methoxy-2-pyridyl)-[(7S)-2,7-dimethyl-3-(3,4,5-trifluorophenyl)-5,7-dihydro-4H-pyrazolo[3,4-c]pyridin-6-yl]methanone]: 30.1 nM; `Cn1nc2c(c1-c1ccccc1)CCN(C(=O)c1onc3ccccc13)C2` [Example 55, Benzo[c]isoxazol-3-yl(2-methyl-3-phenyl-2,4,5,7-tetrahydro-6H-pyrazolo[3,4-c]pyridin-6-yl)methanone]: 226 nM. On the same count and under the same terms, the value for `COc1c(C)cccc1C(=O)N1CCc2c(nn(C)c2-c2ccccc2)C1` [Example 7, (2-Methoxy-3-methylphenyl)(2-methyl-3-phenyl-2,4,5,7-tetrahydro-6H-pyrazolo[3,4-c]pyridin-6-yl)methanone] was 113 nM.
